PubChem BioAssay (NCI)
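Results reflect a 48-hour exposure of cells in 96-well plates to compound at five concentrations. The concentration for full growth arrest is given as TGI.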

How the values were obtained:
Assay in all cases: DTP human tumour cell line panel, 48 h
786-0 renal = system: 786-0 renal
A498 renal = system: A498 renal
A549 NSCLC = system: A549 NSCLC
ACHN renal = system: ACHN renal
BT-549 breast = system: BT-549 breast
CAKI-1 renal = system: CAKI-1 renal
CCRF-CEM leukemia = system: CCRF-CEM leukemia
COLO 205 colon = system: COLO 205 colon
DU-145 prostate = system: DU-145 prostate
EKVX NSCLC = system: EKVX NSCLC
HCC-2998 colon = system: HCC-2998 colon
HCT-116 colon = system: HCT-116 colon
HCT-15 colon = system: HCT-15 colon
HOP-62 NSCLC = system: HOP-62 NSCLC
HOP-92 NSCLC = system: HOP-92 NSCLC
HS 578T breast = system: HS 578T breast
HT29 colon = system: HT29 colon
IGROV1 ovarian = system: IGROV1 ovarian
K-562 leukemia = system: K-562 leukemia
KM12 colon = system: KM12 colon
M14 melanoma = system: M14 melanoma
MALME-3M melanoma = system: MALME-3M melanoma
MCF7 breast = system: MCF7 breast
MDA-MB-231 breast = system: MDA-MB-231 breast
MDA-MB-435 = system: MDA-MB-435
MDA-N = system: MDA-N
MOLT-4 leukemia = system: MOLT-4 leukemia
NCI-H226 lung = system: NCI-H226 lung
NCI-H23 lung = system: NCI-H23 lung
NCI-H522 lung = system: NCI-H522 lung
NCI/ADR-RES ovarian = system: NCI/ADR-RES ovarian
OVCAR-3 ovarian = system: OVCAR-3 ovarian
OVCAR-4 ovarian = system: OVCAR-4 ovarian
OVCAR-5 ovarian = system: OVCAR-5 ovarian
OVCAR-8 ovarian = system: OVCAR-8 ovarian
PC-3 prostate = system: PC-3 prostate
RXF 393 renal = system: RXF 393 renal
SF-268 CNS = system: SF-268 CNS
SF-295 CNS = system: SF-295 CNS
SF-539 CNS = system: SF-539 CNS
SK-MEL-28 melanoma = system: SK-MEL-28 melanoma
SK-MEL-5 melanoma = system: SK-MEL-5 melanoma
SK-OV-3 ovarian = system: SK-OV-3 ovarian
SN12C renal = system: SN12C renal
SNB-19 CNS = system: SNB-19 CNS
SNB-75 CNS = system: SNB-75 CNS
SR leukemia = system: SR leukemia
SW-620 colon = system: SW-620 colon
T-47D breast = system: T-47D breast
TK-10 renal = system: TK-10 renal
U251 CNS = system: U251 CNS
UACC-257 melanoma = system: UACC-257 melanoma
UACC-62 melanoma = system: UACC-62 melanoma
UO-31 renal = system: UO-31 renal
DLD-1 colon = system: DLD-1 colon
DMS 114 small cell lung = system: DMS 114 small cell lung
DMS 273 small cell lung = system: DMS 273 small cell lung
HL-60(TB) leukemia = system: HL-60(TB) leukemia
HOP-18 NSCLC = system: HOP-18 NSCLC
KM20L2 colon = system: KM20L2 colon
LOX IMVI melanoma = system: LOX IMVI melanoma
LXFL 529 NSCLC = system: LXFL 529 NSCLC
M19-MEL melanoma = system: M19-MEL melanoma
NCI-H460 lung = system: NCI-H460 lung
RPMI-8226 leukemia = system: RPMI-8226 leukemia
SK-MEL-2 melanoma = system: SK-MEL-2 melanoma
SNB-78 CNS = system: SNB-78 CNS
XF 498 CNS = system: XF 498 CNS

CCn1c(=O)c2c3ccc(OC)cc3[nH]c2c2ccc(OC)cc21
TGI (786-0 renal): > 100 µM | TGI (A498 renal): > 100 µM | TGI (A549 NSCLC): > 100 µM | TGI (ACHN renal): > 100 µM | TGI (BT-549 breast): > 100 µM | TGI (CAKI-1 renal): > 100 µM | TGI (CCRF-CEM leukemia): > 100 µM | TGI (COLO 205 colon): > 100 µM | TGI (DU-145 prostate): > 100 µM | TGI (EKVX NSCLC): > 100 µM | TGI (HCC-2998 colon): 62.7 µM | TGI (HCT-116 colon): > 100 µM | TGI (HCT-15 colon): > 100 µM | TGI (HOP-62 NSCLC): > 100 µM | TGI (HOP-92 NSCLC): > 100 µM | TGI (HS 578T breast): > 100 µM | TGI (HT29 colon): > 100 µM | TGI (IGROV1 ovarian): > 100 µM | TGI (K-562 leukemia): > 100 µM | TGI (KM12 colon): > 100 µM | TGI (M14 melanoma): > 100 µM | TGI (MALME-3M melanoma): > 100 µM | TGI (MCF7 breast): > 100 µM | TGI (MDA-MB-231 breast): > 100 µM | TGI (MDA-MB-435): > 100 µM | TGI (MDA-N): > 100 µM | TGI (MOLT-4 leukemia): > 100 µM | TGI (NCI-H226 lung): > 100 µM | TGI (NCI-H23 lung): > 100 µM | TGI (NCI-H522 lung): > 100 µM | TGI (NCI/ADR-RES ovarian): > 100 µM | TGI (OVCAR-3 ovarian): > 100 µM | TGI (OVCAR-4 ovarian): > 100 µM | TGI (OVCAR-5 ovarian): > 100 µM | TGI (OVCAR-8 ovarian): > 100 µM | TGI (PC-3 prostate): > 100 µM | TGI (RXF 393 renal): > 100 µM | TGI (SF-268 CNS): > 100 µM | TGI (SF-295 CNS): > 100 µM | TGI (SF-539 CNS): > 100 µM | TGI (SK-MEL-28 melanoma): > 100 µM | TGI (SK-MEL-5 melanoma): > 100 µM | TGI (SK-OV-3 ovarian): > 100 µM | TGI (SN12C renal): > 100 µM | TGI (SNB-19 CNS): > 100 µM | TGI (SNB-75 CNS): 96.1 µM | TGI (SR leukemia): > 100 µM | TGI (SW-620 colon): > 100 µM | TGI (T-47D breast): > 100 µM | TGI (TK-10 renal): > 100 µM | TGI (U251 CNS): > 100 µM | TGI (UACC-257 melanoma): > 100 µM | TGI (UACC-62 melanoma): > 100 µM | TGI (UO-31 renal): > 100 µM

CN(C)CCNC(=O)c1c2ccccc2cc2ccccc12
TGI (786-0 renal): > 100 µM | TGI (A498 renal): > 100 µM | TGI (A549 NSCLC): > 100 µM | TGI (ACHN renal): > 100 µM | TGI (CCRF-CEM leukemia): > 100 µM | TGI (COLO 205 colon): 48.3 µM | TGI (DLD-1 colon): > 100 µM | TGI (DMS 114 small cell lung): > 100 µM | TGI (DMS 273 small cell lung): > 100 µM | TGI (EKVX NSCLC): > 100 µM | TGI (HCC-2998 colon): > 100 µM | TGI (HCT-116 colon): > 100 µM | TGI (HCT-15 colon): > 100 µM | TGI (HL-60(TB) leukemia): 88.5 µM | TGI (HOP-18 NSCLC): > 100 µM | TGI (HOP-62 NSCLC): > 100 µM | TGI (HOP-92 NSCLC): > 100 µM | TGI (HT29 colon): > 100 µM | TGI (IGROV1 ovarian): > 100 µM | TGI (K-562 leukemia): 67.1 µM | TGI (KM12 colon): > 100 µM | TGI (KM20L2 colon): > 100 µM | TGI (LOX IMVI melanoma): 30.1 µM | TGI (LXFL 529 NSCLC): 80.8 µM | TGI (M14 melanoma): 30.7 µM | TGI (M19-MEL melanoma): > 100 µM | TGI (MALME-3M melanoma): > 100 µM | TGI (MOLT-4 leukemia): 45 µM | TGI (NCI-H226 lung): 48.5 µM | TGI (NCI-H23 lung): > 100 µM | TGI (NCI-H460 lung): > 100 µM | TGI (OVCAR-3 ovarian): > 100 µM | TGI (OVCAR-4 ovarian): > 100 µM | TGI (OVCAR-5 ovarian): > 100 µM | TGI (OVCAR-8 ovarian): > 100 µM | TGI (RPMI-8226 leukemia): > 100 µM | TGI (RXF 393 renal): 99 µM | TGI (SF-268 CNS): > 100 µM | TGI (SF-295 CNS): > 100 µM | TGI (SF-539 CNS): > 100 µM | TGI (SK-MEL-2 melanoma): 36.8 µM | TGI (SK-MEL-28 melanoma): 64.4 µM | TGI (SK-MEL-5 melanoma): 34.3 µM | TGI (SK-OV-3 ovarian): > 100 µM | TGI (SN12C renal): > 100 µM | TGI (SNB-19 CNS): > 100 µM | TGI (SNB-75 CNS): > 100 µM | TGI (SNB-78 CNS): > 100 µM | TGI (SR leukemia): 26.3 µM | TGI (SW-620 colon): > 100 µM | TGI (TK-10 renal): > 100 µM | TGI (U251 CNS): > 100 µM | TGI (UACC-257 melanoma): 34.4 µM | TGI (UACC-62 melanoma): 53.4 µM | TGI (UO-31 renal): > 100 µM | TGI (XF 498 CNS): 44.8 µM

COc1cc(/C=C/C(=N\NC(=S)NN)c2sc(NNC(C)=O)nc2C)ccc1O
TGI (786-0 renal): > 100 µM | TGI (A498 renal): > 100 µM | TGI (A549 NSCLC): > 100 µM | TGI (ACHN renal): > 100 µM | TGI (BT-549 breast): > 100 µM | TGI (CAKI-1 renal): > 100 µM | TGI (CCRF-CEM leukemia): > 100 µM | TGI (COLO 205 colon): > 100 µM | TGI (DU-145 prostate): > 100 µM | TGI (EKVX NSCLC): > 100 µM | TGI (HCC-2998 colon): > 100 µM | TGI (HCT-116 colon): > 100 µM | TGI (HCT-15 colon): > 100 µM | TGI (HL-60(TB) leukemia): > 100 µM | TGI (HOP-62 NSCLC): > 100 µM | TGI (HOP-92 NSCLC): > 100 µM | TGI (HS 578T breast): > 100 µM | TGI (HT29 colon): > 100 µM | TGI (IGROV1 ovarian): > 100 µM | TGI (K-562 leukemia): > 100 µM | TGI (KM12 colon): > 100 µM | TGI (LOX IMVI melanoma): > 100 µM | TGI (M14 melanoma): > 100 µM | TGI (MALME-3M melanoma): > 100 µM | TGI (MCF7 breast): > 100 µM | TGI (MDA-MB-231 breast): > 100 µM | TGI (MDA-MB-435): > 100 µM | TGI (MDA-N): > 100 µM | TGI (MOLT-4 leukemia): > 100 µM | TGI (NCI-H226 lung): > 100 µM | TGI (NCI-H23 lung): > 100 µM | TGI (NCI-H460 lung): > 100 µM | TGI (NCI-H522 lung): > 100 µM | TGI (NCI/ADR-RES ovarian): > 100 µM | TGI (OVCAR-3 ovarian): > 100 µM | TGI (OVCAR-4 ovarian): > 100 µM | TGI (OVCAR-5 ovarian): > 100 µM | TGI (OVCAR-8 ovarian): > 100 µM | TGI (PC-3 prostate): > 100 µM | TGI (RPMI-8226 leukemia): > 100 µM | TGI (RXF 393 renal): > 100 µM | TGI (SF-268 CNS): > 100 µM | TGI (SF-295 CNS): > 100 µM | TGI (SF-539 CNS): > 100 µM | TGI (SK-MEL-2 melanoma): > 100 µM | TGI (SK-MEL-28 melanoma): > 100 µM | TGI (SK-MEL-5 melanoma): > 100 µM | TGI (SK-OV-3 ovarian): > 100 µM | TGI (SN12C renal): > 100 µM | TGI (SNB-19 CNS): > 100 µM | TGI (SNB-75 CNS): > 100 µM | TGI (SR leukemia): > 100 µM | TGI (SW-620 colon): > 100 µM | TGI (T-47D breast): > 100 µM | TGI (TK-10 renal): > 100 µM | TGI (U251 CNS): > 100 µM | TGI (UACC-257 melanoma): > 100 µM | TGI (UACC-62 melanoma): > 100 µM | TGI (UO-31 renal): > 100 µM
